Several values for one entry are separate records, joined by “and”; a condition that tells them apart may be missing. Equal entries are not always repeated.

Data set [1] is described as follows: Deposition/occlusion assay on dentine slices, confocal imaging. To be noted: for Thickness of surface deposits: 16-fold dilution. Also on record: species or system human. The procedure: The deposition/occlusion assay is conducted using human dentine slices and the neat solution of Example 5. The dentine slices were prepared by cutting human tooth into thin dentine sections of about 800 microns in thickness, choosing a test side, sanding said test side using a sandpaper of about 600 grit, polishing said test side using a Buehler polishing cloth and 5 micron Buehler aluminum oxide, acid-etching said dentine section in 1% (by weight) citric acid solution for about 20 seconds, sonicating said dentine section for 10 minutes, and storing said dentine section in phosphate buffered saline (PBS, pH 7.4).
For treatment, the neat solution is diluted 16-fold with water, yielding a treatment solution with initial zinc concentration of about 0.149% by weight. The dentine section is immersed in the treatment solution for 1 hour at 37° C. The treated dentine section is then removed from the treatment solution, and rinsed 4 times, each time with 1 mL of PBS. The dentine section is then dried using a paper-based tissue and examined under confocal microscope in both XYZ and XYZ modes. Subsequent treatments are conducted in the same manner.
Dentine sections, as prepared in Example 6, are repeatedly treated with ZLC dilutions with initial zinc concentration of 0.0747% by weight. […] The dentine section is examined under the confocal microscope after each treatment.

The nature of data set [2]: Dilution experiment of ZLC neat solution: visible flocculation/precipitation and pH. It counts as physicochemical. Conditions: for final pH value: diluted sample. The procedure: Various dilutions of ZLC are prepared to evaluate its efficiency in producing visible precipitates and/or flocculation, which can be delivered in situ onto an oral surface or into a dental opening, such as open tubules.
A neat solution of ZLC is prepared by 1), reacting 0.5 mole of ZnO powder with 1 mole of lysine HCl in 1 liter of water at room temperature for about 2 hours, and 2) collecting the supernatant through centrifugation followed by filtration using a 0.45 micron membrane. The neat solution has a zinc concentration of 2.39% by weight, and a pH of about 7.03.
Dilution experiment is conducted by mixing the neat solution with deionized water. The neat solution is diluted by 2×, 4×, 6×, 7×, 8×, 10×, 12×, 16×, 20×, 24×, 28×, and 32×, corresponding to initial zinc concentrations of 1.20%, 0.598%, 0.398%, 0.341%, 0.299%, 0.239%, 0.199%, 0.149%, 0.120%, 0.0996%, 0.0854%, 0.0747%, by weight, respectively. The diluted samples are kept at 37° C., and the rates at which flocculation/precipitation occurred are monitored.
pH values of final diluted samples are suitable for oral care applications. […] These pH values were well within the range of 5.5 to 10, which defines the suitable range for oral care formulations.

Turning to [Zn(C6H14N2O2)2Cl]^+Cl^− [ZLC], the “Deposition and occlusion on dentine surface” value in data set [1] (after 4 consecutive treatments, 0.0747% zinc, 10 minutes each at 37° C.) is “significant surface deposition”; in data set [1] (after 12 consecutive treatments, 0.0747% zinc, 10 minutes each at 37° C.) it was “complete surface coverage”; in data set [1] (first treatment, 16-fold dilution (about 0.149% zinc), 1 hour at 37° C.), “noticeable deposition”; in data set [1] (second treatment, 16-fold dilution (about 0.149% zinc), 1 hour at 37° C.) it was “complete surface coverage, including blocking of substantially all tubule openings”; in data set [1] (third treatment, 16-fold dilution (about 0.149% zinc), 1 hour at 37° C.) it was “complete surface coverage and complete blocking of tubule openings”. The “Thickness of surface deposits” value in data set [1] (after second treatment, 1 hour at 37° C.) is reported as at least 10 microns; in data set [1] (after third treatment, 1 hour at 37° C.), at least 25 microns. For the same substance, the “Visible precipitation during treatment” value in data set [1] (initial zinc concentration 0.0747%, 10 minutes at 37° C.) is reported as “no precipitation is observed by naked eyes”. Further, the “Samples with flocculation and/or precipitation” value in data set [2] (after a total of 19 hours, 37° C.) is reported as “all samples except the one with initial zinc concentration of 1.20%”. Besides, the “final pH value” in data set [2] (initial zinc concentration 0.0747%) stood at 7.99; in data set [2] (initial zinc concentration 0.0854%), 8.13; in data set [2] (initial zinc concentration 0.0996%), 8.11; in data set [2] (initial zinc concentration 0.120%), 7.97; in data set [2] (initial zinc concentration 0.149%) it was 7.99; in data set [2] (initial zinc concentration 0.199 wt %) it was 6.80. The “final pH value” in data set [2] (initial zinc concentration 0.239%) was 6.70. In addition, the “pH of the neat solution” value in data set [2] (neat solution, zinc concentration 2.39% by weight) is reported as “about 7.03”. Moreover, in data set [2] (two hours after mixing, 37° C.), the “Initial zinc concentration of the additional sample with flocculation” value is on record as 0.299%. Moreover, the “Initial zinc concentrations of dilutions with visible flocculation” value in data set [2] (within 30 minutes from mixing with water, 37° C.) is 0.149% and 0.199%.

(Values after patent publication US10105303B2, “Oral care composition comprising zinc amino acid halides” (Colgate-Palmolive Company, priority 2012, dated 2018).)
